Source: patent US20230382888A1, “HDAC INHIBITOR SOLID STATE FORMS” (Viracta Subsidiary, Inc., priority 2020, published 2023)
Values after ≈ are worked out from the molar mass of the structure shown. “Also recorded” adds a separate entry of the source. Structures can show the parent of a compound that is named as a salt. Blank lines part the entries; values can stand above or below the compound they belong to.

Columns and labels:
[1] = Static storage stability at elevated temperature/humidity (XRPD, HPLC); format: physicochemical; conditions: for Solid form by XRPD after static storage: 7 days (1 week); for HPLC purity after static storage / Appearance after static storage: 1 week
[2] = Gravimetric vapour sorption (GVS); format: physicochemical; conditions: for Hygroscopicity by GVS: 25° C.; for XRPD post-GVS (solid form): residue after GVS; for Water uptake, first sorption cycle: 40-90% RH; for Starting water content in GVS: at 40% RH
Description: Sorption isotherms were obtained using a SMS DVS Intrinsic moisture sorption analyser, controlled by DVS Intrinsic Control software. The sample temperature was maintained at 25° C. by the instrument controls. The humidity was controlled by mixing streams of dry and wet nitrogen, with a total flow rate of 200 ml/min. The relative humidity was measured by a calibrated Rotronic probe (dynamic range of 1.0 — 100% RH), located near the sample. The weight change, (mass relaxation) of the sample as a function of % RH was constantly monitored by a microbalance (accuracy ±0.005 mg). Typically, 20-30 mg of sample was placed in a tared mesh stainless steel basket under ambient conditions. The sample was loaded and unloaded at 40% RH and 25° C. (typical room conditions). A moisture sorption isotherm was performed as outlined below (2 scans per complete cycle). The standard isotherm was performed at 25° C. at 10% RH intervals over a 0-90% RH range. Typically, a double cycle (4 scans) was carried out. Data analysis was carried out within Microsoft Excel using the DVS Analysis Suite. [table]

[3] = format: physicochemical
Source text: There was insufficient residue to characterize these further.

[4] = Intrinsic dissolution rate (IDR) in FaSSGF; format: physicochemical; conditions: Fasted State Simulated Gastric Fluid
[5] = Thermodynamic aqueous solubility; format: physicochemical; conditions: for pH of saturated solution: water, after 24 hours equilibration at 25° C.
Description: Aqueous solubility was determined by suspending sufficient compound in 0.5 ml deionized water to give a maximum final concentration of 40 mg/ml of the parent free-form of the compound. The suspension was equilibrated at 25° C., on a Heidolph plate shaker set to 750 rpm for 24 hours. After equilibration, the appearance was noted and the pH of the saturated solution was measured. Samples forming suspensions were centrifuged for 4 min at 13,500 rpm. Samples were then filtered through a glass fiber C filter (particle retention 1.2 μm), before dilution with H2 O as appropriate. Quantitation was by HPLC (see Table 2 for parameters) with reference to a standard solution of approximately 0.15 mg/ml in DMSO. Different volumes of the standard, diluted and undiluted sample solutions were injected. The solubility was calculated using the peak areas determined by integration of the peak found at the same retention time as the principal peak in the standard injection. Analysis was performed on an Agilent HP1100/Infinity II 1260 series system equipped with a diode array detector and using OpenLAB software.

SMILES: O=C(NO)c1cnc(N2CC3C(C2)C3NCc2ccc3cc(F)ccc3n2)nc1 (stereo not shown) [Mesylate Form 8, N-hydroxy 2-{6-[(6-fluoro-quinolin-2-ylmethyl)-amino]-3-aza-bicyclo[3.1.0]hex-3-yl}pyrimidine-5-carboxamide]
Solid form by XRPD after static storage ([1]; 25° C./97% RH): converted to Mesylate Form 1
Solid form by XRPD after static storage ([1]; 40° C./75% RH): converted to Mesylate Form 1

SMILES: O=C(NO)c1cnc(N2C[C@@H]3[C@H](C2)[C@H]3NCc2ccc3cc(F)ccc3n2)nc1 [Mesylate Form 5, N-hydroxy 2-{6-[(6-fluoro-quinolin-2-ylmethyl)-amino]-3-aza-bicyclo[3.1.0]hex-3-yl}pyrimidine-5-carboxamide]
Hygroscopicity by GVS [2]: hygroscopic
XRPD post-GVS (solid form) [2]: remaining unchanged; also recorded: stable after GVS analysis; also recorded: XRPD Post-GVS: Mesylate Form 5
Solubility residue (solid form) [3]: new solubility residue patterns
HPLC purity after static storage ([1]; 25° C./97% RH): 99.5%
Solid form by XRPD after static storage ([1]; 25° C./97% RH): remained as Mesylate Form 5; also recorded: Unchanged: Mesylate Form 5
HPLC purity after static storage ([1]; 40° C./75% RH): 99.5%
Solid form by XRPD after static storage ([1]; 40° C./75% RH): remained as Mesylate Form 5; also recorded: Unchanged: Mesylate Form 5

SMILES: O=C(NO)c1cnc(N2CC3C(C2)C3NCc2ccc3cc(F)ccc3n2)nc1 (stereo not shown) [Mesylate Form 9, N-hydroxy 2-{6-[(6-fluoro-quinolin-2-ylmethyl)-amino]-3-aza-bicyclo[3.1.0]hex-3-yl}pyrimidine-5-carboxamide]
Appearance after static storage ([1]; 25° C./97% RH): Sample appeared wet-white solid still present
Solid form by XRPD after static storage ([1]; 25° C./97% RH): Poorly crystalline-Mesylate Form 1
Appearance after static storage ([1]; 40° C./75% RH): color change to yellow; also recorded: Sample appeared ‘damp’-yellow solid present
Solid form by XRPD after static storage ([1]; 40° C./75% RH): Mesylate Form 1

SMILES: O=C(NO)c1cnc(N2C[C@@H]3[C@H](C2)[C@H]3NCc2ccc3cc(F)ccc3n2)nc1 [Mesylate Form 2, N-hydroxy 2-{6-[(6-fluoro-quinolin-2-ylmethyl)-amino]-3-aza-bicyclo[3.1.0]hex-3-yl}pyrimidine-5-carboxamide]
Hygroscopicity by GVS [2]: slightly hygroscopic
Hygroscopicity by GVS ([2]; listed as Form 2): slightly hygroscopic
XRPD post-GVS (solid form) [2]: unchanged; also recorded: XRPD Post-GVS: Mesylate Form 2
Solid form by XRPD after static storage ([1]; 25° C./97% RH): unchanged; also recorded: Mesylate Form 2
Solid form by XRPD after static storage ([1]; 25° C./97% RH, listed as Form 2): stable after 1 week
Solid form by XRPD after static storage ([1]; 40° C./75% RH): unchanged; also recorded: Mesylate Form 2
Solid form by XRPD after static storage ([1]; 40° C./75% RH, listed as Form 2): stable after 1 week

SMILES: O=C(NO)c1cnc(N2CC3C(C2)C3NCc2ccc3cc(F)ccc3n2)nc1 (stereo not shown) [amorphous mesylate salt, N-hydroxy 2-{6-[(6-fluoro-quinolin-2-ylmethyl)-amino]-3-aza-bicyclo[3.1.0]hex-3-yl}pyrimidine-5-carboxamide]
Solid form by XRPD after static storage ([1]; 25° C./97% RH): Amorphous, with low-level peak at 3.7° 2θ
Solid form by XRPD after static storage ([1]; 25° C./97% RH, listed as amorphous): largely amorphous
Solid form by XRPD after static storage ([1]; 40° C./75% RH): Amorphous, with low-level peak at 3.7° 2θ
Solid form by XRPD after static storage ([1]; 40° C./75% RH, listed as amorphous): largely amorphous

Continued, in another order:

Solid form by XRPD after static storage ([1]; 25° C./97% RH): converted to Mesylate Form 1
Solid form by XRPD after static storage ([1]; 40° C./75% RH): converted to Mesylate Form 1
SMILES: O=C(NO)c1cnc(N2CC3C(C2)C3NCc2ccc3cc(F)ccc3n2)nc1 (stereo not shown) [Mesylate Form 7, N-hydroxy 2-{6-[(6-fluoro-quinolin-2-ylmethyl)-amino]-3-aza-bicyclo[3.1.0]hex-3-yl}pyrimidine-5-carboxamide]

IDR in FaSSGF [4]: 1.1 mg/min/cm^2
solubility at 24 h ([5]; thermodynamic from solid, deionized water, 25° C., 24 hours, maximum final concentration 40 mg/ml of parent free-form): 1 µg/mL (≈ 2.54 µM)
pH of saturated solution [5]: (pH = 7.4)
SMILES: O=C(NO)c1cnc(N2C[C@@H]3[C@H](C2)[C@H]3NCc2ccc3cc(F)ccc3n2)nc1 [Free Base Form A, N-hydroxy 2-{6-[(6-fluoro-quinolin-2-ylmethyl)-amino]-3-aza-bicyclo[3.1.0]hex-3-yl}pyrimidine-5-carboxamide]

Solubility in water ([5]; deionized water, 25° C., 24 hours, maximum final concentration 40 mg/ml of parent free-form, listed as Free base): essentially insoluble in water
SMILES: O=C(NO)c1cnc(N2C[C@@H]3[C@H](C2)[C@H]3NCc2ccc3cc(F)ccc3n2)nc1 [Compound 1, N-hydroxy-2-{6-[(6-fluoro-quinolin-2-ylmethyl)-amino]-3-aza-bicyclo[3.1.0]hex-3-yl}pyrimidine-5-carboxamide]

Solid form by XRPD after static storage ([1]; 25° C./97% RH): converted to Mesylate Form 1
Solid form by XRPD after static storage ([1]; 40° C./75% RH): converted to Mesylate Form 1
SMILES: O=C(NO)c1cnc(N2CC3C(C2)C3NCc2ccc3cc(F)ccc3n2)nc1 (stereo not shown) [Mesylate Form 6, N-hydroxy 2-{6-[(6-fluoro-quinolin-2-ylmethyl)-amino]-3-aza-bicyclo[3.1.0]hex-3-yl}pyrimidine-5-carboxamide]

IDR in FaSSGF [4]: 1.8 mg/min/cm^2
Solubility in water ([5]; deionized water, 25° C., 24 hours, maximum final concentration 40 mg/ml of parent free-form): 1 µg/mL (≈ 2.54 µM)
pH of saturated solution [5]: (pH = 7.4)
SMILES: O=C(NO)c1cnc(N2C[C@@H]3[C@H](C2)[C@H]3NCc2ccc3cc(F)ccc3n2)nc1 [Free Base Form B, N-hydroxy 2-{6-[(6-fluoro-quinolin-2-ylmethyl)-amino]-3-aza-bicyclo[3.1.0]hex-3-yl}pyrimidine-5-carboxamide]

Water uptake, first sorption cycle [2]: 2%
Water content on desorption cycle 1 ([2]; at 30% RH): 24.3%
Starting water content in GVS [2]: 25.1%
Solubility residue (solid form) [3]: new solubility residue patterns
HPLC purity after static storage ([1]; 25° C./97% RH): 96.6%
Solid form by XRPD after static storage ([1]; 25° C./97% RH, listed as Form 3): remained as Mesylate Form 3
HPLC purity after static storage ([1]; 40° C./75% RH): 97.0%
Solid form by XRPD after static storage ([1]; 40° C./75% RH, listed as Form 3): convert to Mesylate Form 5
SMILES: O=C(NO)c1cnc(N2C[C@@H]3[C@H](C2)[C@H]3NCc2ccc3cc(F)ccc3n2)nc1 [Mesylate Form 3, N-hydroxy 2-{6-[(6-fluoro-quinolin-2-ylmethyl)-amino]-3-aza-bicyclo[3.1.0]hex-3-yl}pyrimidine-5-carboxamide]
Water loss, desorption cycle 1 ([2]; 30-20% RH): Desorption Cycle 1 22% water loss from 30-20% RH
XRPD post-GVS (solid form) [2]: XRPD Post-GVS: Poorly crystalline broad reflections may match
Solid form by XRPD after static storage ([1]; 25° C./97% RH): remained unchanged; also recorded: Mesylate Form 3
Solid form by XRPD after static storage ([1]; 40° C./75% RH): conversion to the sesquihydrate Mesylate Form 5

Water uptake, first sorption cycle [2]: 0.7%
Starting water content in GVS [2]: 9.4%
Gradual water loss, desorption cycle 1 ([2]; down to 20% RH): 0.8%
Thermodynamic solubility in FaSSGF [3]: 24000 µg/mL
HPLC purity after static storage ([1]; 25° C./97% RH): 99.5%
HPLC purity after static storage ([1]; 40° C./75% RH): 99.4%
SMILES: O=C(NO)c1cnc(N2C[C@@H]3[C@H](C2)[C@H]3NCc2ccc3cc(F)ccc3n2)nc1 [Mesylate Form 4, N-hydroxy 2-{6-[(6-fluoro-quinolin-2-ylmethyl)-amino]-3-aza-bicyclo[3.1.0]hex-3-yl}pyrimidine-5-carboxamide]
XRPD post-GVS (solid form) [2]: conversion to Mesylate Form 1; also recorded: Post-GVS: Converted to Mesylate Form 1 by XRPD
Solid form by XRPD after static storage ([1]; 25° C./97% RH): conversion to Mesylate Form 1; also recorded: converted to Mesylate Form 1
